Measurements published in patent US5430169A, “Method for preparation of sphingoid bases” (The United States of America represented by the Department …, priority 1994, dated 1995).
Entries after “also recorded” stand apart in the source; their conditions may differ. Values belong to the molecule of their own block, whether it stands above or below them.

Experiments:
rat liver aldolase = molecular target: T1, rat liver aldolase (Rattus norvegicus, UniProt Q8CHN6); assay: in vitro biological evaluation: inhibition of rat liver aldolase; type: biochemical; details: read-out: IC50, inhibited rat liver aldolase
T1 construct: from tissue; host or cells: rat liver
T1 sequence (Q8CHN6 1-568): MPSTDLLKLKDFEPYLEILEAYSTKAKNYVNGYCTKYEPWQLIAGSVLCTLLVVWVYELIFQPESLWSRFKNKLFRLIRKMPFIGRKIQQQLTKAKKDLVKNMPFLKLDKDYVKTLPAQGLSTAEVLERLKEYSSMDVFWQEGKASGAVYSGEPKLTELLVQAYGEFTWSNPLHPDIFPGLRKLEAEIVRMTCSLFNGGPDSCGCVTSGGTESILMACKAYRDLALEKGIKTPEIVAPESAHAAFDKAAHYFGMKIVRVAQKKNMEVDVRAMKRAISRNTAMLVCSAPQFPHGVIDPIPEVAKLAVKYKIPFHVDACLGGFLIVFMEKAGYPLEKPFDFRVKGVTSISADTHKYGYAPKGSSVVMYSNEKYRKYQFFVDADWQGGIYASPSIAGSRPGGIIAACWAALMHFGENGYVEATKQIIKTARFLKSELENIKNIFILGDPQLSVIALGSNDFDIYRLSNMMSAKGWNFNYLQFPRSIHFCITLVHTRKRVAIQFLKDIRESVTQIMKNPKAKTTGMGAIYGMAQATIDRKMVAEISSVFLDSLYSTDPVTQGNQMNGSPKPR

S-1-P aldolase [1] = assay: time dependent (irreversible) inhibition of S-1-P aldolase; type: biochemical; details: mode of inhibition, in words
Swiss 3T3 fibroblasts = details: in words; cited from earlier work
[2] = system: permeabilized smooth muscle cells; details: IP3-sensitive and IP3-insensitive pools; cited from earlier work
S-1-P aldolase [3] = details: mode of inhibition, in words; cited from earlier work
permeabilized cells = details: cellular level / environments with other cellular components, e.g.; cited from earlier work
protein kinase C = details: in words; cited from earlier work

Compound: CCCCCCCCCCCCC/C=C/[C@@H](O)[C@@H](N)COP(=O)(O)O [Example S-1-P, sphingosine-1-phosphate]
mitogenic effect in Swiss 3T3 fibroblasts (Swiss 3T3 fibroblasts): very potent mitogen
translocation of calcium from intracellular stores [2]: rapid translocation of calcium from intracellular stores

Compound: CCCCCCCCCCCCCCCC(O)C(COP(=O)(O)O)NN (stereo not shown) [Example 3, 2-hydrazino deamino dihydrosphingosine-1-phosphate]
IC50 (rat liver aldolase): 800 nM

Compound: CCCCCCCCCCCCCCCC(O)C(N)CP(=O)(O)O (stereo not shown) [DS-1-P, dihydrosphingosine-1-phosphonate]
inhibition of the S-1-P aldolase reaction (S-1-P aldolase [3]): competitive inhibition
toxicity (permeabilized cells): highly toxic; also recorded: well known toxin

Compound: CCCCCCCCCCCCC/C=C/[C@@H](O)[C@@H](N)CO [sphingosine]
inhibition of protein kinase C (protein kinase C): potent and specific inhibitor

Second part, the molecule after the results:

IC50 (rat liver aldolase): 2400 nM
time dependent (irreversible) inhibitor of S-1-P aldolase (S-1-P aldolase [1]): time dependent (irreversible) inhibitor
Compound: C=CC(N)(COP(=O)(O)O)C(O)CCCCCCCCCCCCCCC (stereo not shown) [Example 4, 2-vinyl dihydrosphingosine-1-phosphate]

IC50 (rat liver aldolase): 1100 nM
time dependent (irreversible) inhibitor of S-1-P aldolase (S-1-P aldolase [1]): time dependent (irreversible) inhibitor
Compound: C=CC(N)COP(=O)(O)O (stereo not shown) [Example 5, 2-vinyl ethanolamine-O-phosphate]
